# Values quoted from earlier work in patent publication US20090317456A1, “USE OF ONCOLYTIC VIRUSES AND ANTIANGIOGENIC AGENTS IN THE TREATMENT OF CANCER” (priority 2006, published 2009).
# How the values were obtained:
# [1] = tested on: PDGFR
# [2] = tested on: VEGFR tyrosine kinases, including VEGFR-3; conditions: all known VEGFR tyrosine kinases
# [3] = tested on: metastatic colorectal cancer; conditions: bevacizumab added to FOLFOX or FOLFIRI; prolonged from 12 months without
compound,measurement,setting,value
Clc1ccc(Nc2nnc(Cc3ccncc3)c3ccccc23)cc1 [PTK 787/ZK 222584],inhibition of PDGFR,[1],nanomolar range
same,inhibition of VEGFR tyrosine kinases,[2],lower nanomolar range
"bevacizumab: humanized anti-VEGF monoclonal antibody (Avastin, Genentech)",median survival,[3],20 months
